Experimental data published in patent publication US20240316051A1, “A PHARMACEUTICAL COMBINATION AND USE THEREOF” (Ascentage Pharma (Suzhou) Co., Ltd., priority 2021, published 2024).

What was measured:
[1] = test system: NCI-H28(X1) (BAP1mut, UHRF1high, TP53WT, CDKN2Adel, FGFRlow, NF2WT) subcutaneous mesothelioma xenograft; assay: NCI-H28(X1) subcutaneous mesothelioma xenograft model (Example 23); type: in vivo, mice; conditions: Compound C 50 mg/kg orally every other day, Compound 73 100 mg/kg orally once per day, 28 days, alone or combined
Experimental: (§1) A subcutaneous xenograft tumor model of human tumor immunodeficient mice was established by cell inoculation: tumor cells in logarithmic growth phase were collected, counted, resuspended in 1×PBS, and the cell suspension concentration was adjusted to 2.5-5×10^7/mL. The tumor cells were inoculated subcutaneously in the right side of immunodeficient mice with a 1 ml syringe ([…]), 5-10×10^6/0.2 mL/mouse. All animal experiments were strictly in accordance with the specifications for the use and management of experimental animals in GenePharma Co., Ltd. and Suzhou Ascentage Pharma Co., Ltd. The calculation of relevant parameters refers to the Chinese NMPA “Guidelines for Non-Clinical Research Techniques of Cytotoxic Anti-tumor Drugs”.
(§2) Animal body weight and tumor size were measured twice weekly during the experiment. The state of the animal and the presence or absence of death were observed every day. The growth of tumor and the effects of treatment on normal behavior of animals were monitored routinely, specifically involving experimental animal activity, feeding and drinking, weight gain or loss, eyes, clothing hair and other abnormalities. The deaths and clinical symptoms observed during the experiment were recorded in the raw data. All operations for administration and measurement of mouse body weight and tumor volume were performed in a clean bench. According to the requirements of the experimental protocol, after the end of the last administration, plasma and tumor tissues were collected, weighed and photographed. The plasma and tumor samples were frozen at −80° C. for ready-to-use.
(§3) Tumor volume (TV) is calculated as: TV=a×b^2/2, wherein a and b represent the length and width of the tumor to be measured, respectively.
(§4) The relative tumor volume (RTV) is calculated as: RTV=Vt/V1, wherein V1 is the tumor volume at the start of grouping and administration, and Vt is the tumor volume measured on the t day after administration.
The evaluation index of anti-tumor activity is the relative tumor proliferation rate T/C (%), and the calculation formula thereof is: relative tumor proliferation rate T/C (%)=(TRTV/CRTV)×100%, TRTV is the RTV of treatment group, CRTV is the RTV of solvent control group. […]
According to the description by Clarke R., Issues in experimental design and endpoint analysis in the study of experimental cytotoxic agents in vivo in breast cancer and other models [J]. Breast Cancer Research & Treatment, 1997, 46(2-3): 255-278, synergy analysis was evaluated using the following formula: synergy factor=((A/C)×(B/C))/(AB/C); A=RTV value of drug A alone group; B=RTV value of drug B alone group; C=RTV value of the solvent control group, and AB=RTV value of the A and B combination group. […]

[2] = test system: BAP1 mut mesothelioma PDX model; assay: BAP1 mut mesothelioma PDX model (Examples 15-17); type: in vivo, mice; conditions: orally, once per day, 28 days
Experimental: as §1, §2, §3, §4
(§5) The evaluation index of anti-tumor activity is the relative tumor proliferation rate T/C (%), and the calculation formula thereof is: relative tumor proliferation rate T/C (%)=(TRTV/CRTV)×100%, TRTV is the RTV of treatment group, CRTV is the RTV of solvent control group.
(§6) A dose of drug is considered to be severely toxic if the body weight of mouse is reduced by more than 20% or the number of drug-related deaths exceeds 20%.
According to the description by Clarke R., Issues in experimental design and endpoint analysis in the study of experimental cytotoxic agents in vivo in breast cancer and other models [J]. Breast Cancer Research & Treatment, 1997, 46(2-3): 255-278, synergy analysis was evaluated using the following formula: synergy factor=((A/C)×(B/C))/(AB/C); A=RTV value of drug A alone group; B=RTV value of drug B alone group; C=RTV value of the solvent control group, and AB=RTV value of the A and B combination group.
In this experiment, a BAP1 mut mesothelioma PDX model (Lide Biotech) was established to evaluate the anti-tumor effect of Compound 73. The dosing regimen was as follows: • Compound 73: 50 mg/kg, orally, once per day, for a total of 28 days; • Compound 73: 100 mg/kg, orally, once per day, for a total of 28 days;
In this experiment, a BAP1 mut mesothelioma PDX model (Lide Biotech) was established to evaluate the anti-tumor effect of Compound 73 in combination with Compound A-1. […]

[3] = target: T1, EED (1-441)-His protein (Homo sapiens, UniProt O75530); assay: EED-H3K27Me3 peptide competition binding assay by AlphaScreen; conditions: Table 4A, read-out: Alpha screen
T1 construct: 20 nM EED (1-441)-His protein
T1 sequence (O75530 whole entry): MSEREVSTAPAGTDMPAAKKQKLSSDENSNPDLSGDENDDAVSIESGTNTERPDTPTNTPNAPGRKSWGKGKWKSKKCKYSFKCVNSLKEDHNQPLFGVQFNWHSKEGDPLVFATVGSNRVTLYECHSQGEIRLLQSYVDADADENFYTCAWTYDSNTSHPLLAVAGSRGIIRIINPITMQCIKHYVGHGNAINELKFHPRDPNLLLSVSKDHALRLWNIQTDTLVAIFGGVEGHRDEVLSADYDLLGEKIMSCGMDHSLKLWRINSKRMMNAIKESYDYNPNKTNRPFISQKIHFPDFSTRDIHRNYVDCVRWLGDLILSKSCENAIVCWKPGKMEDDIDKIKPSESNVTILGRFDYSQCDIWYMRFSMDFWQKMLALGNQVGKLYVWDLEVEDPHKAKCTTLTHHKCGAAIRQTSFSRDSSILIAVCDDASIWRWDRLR
How it was run: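 EED(1-441)-His was preincubated 15 min with compound, then biotin-H3K27Me3(19-33) peptide added for 30 min; both were added as 20 nM solutions in 25 mM HEPES pH 8, 0.02% Tween-20, 0.5% BSA. Ni-chelate acceptor and streptavidin donor beads (10 μg/ml each final) were added for 1 h in the dark at RT. Signal read at 615 nm (680 nm excitation), normalised to controls and fitted to dose-response for IC50.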

[4] = test system: BAP1 mut mesothelioma PDX model; assay: Subcutaneous BAP1 mut mesothelioma PDX model (Example 21); type: in vivo, mice; conditions: Compound 73 100 mg/kg orally once per day, Compound C 50 mg/kg orally every other day, 36 days; alone or combined
Experimental: as §1, §2, §3, §4, §5
Change of body weight (%)=(measured body weight-body weight at the start of grouping)/body weight at the start of grouping×100%.
as §6
In this experiment, subcutaneous BAP1 mut mesothelioma PDX model was established (Lide Biotech) to evaluate the anti-tumor effect of Compound 73 in combination with Compound C. […]

SMILES: CC(C)N1Cc2cc(C(F)(F)F)ncc2-c2cnc(NCc3c(F)ccc4c3CCO4)n3cnc(c23)C1=O [Compound 73, 12-(((5-fluoro-2,3-dihydrobenzofuran-4-yl)methyl)amino)-4-isopropyl-7-(trifluoromethyl)-4,5-dihydro-3H-2,4,8,11,12a-pentaazabenzo[4,5]cycloocta[1,2,3-cd]inden-3-one]
- T/C (%) @ D 29 [1]: 33.06%
- RTV@ D 29 ([1]; mean ± SEM): 5.05 ± 0.41
- T/C (%) ([2]; Compound 73 50 mg/kg, end of study): 69.7%
- T/C (%) ([2]; Compound 73 100 mg/kg, 100 mg/kg): 60%
- antitumor activity (in words) ([2]; Compound 73 single agent, 50 and 100 mg/kg): dose-dependent antitumor activity
- IC50 [3]: 0.5 nM
- RTV @ D 36 [4]: 5.43
- T/C (%) @ D 36 [4]: 37.22%
